Experimental data as given in ChEMBL document CHEMBL1141314, “SAR index: quantifying the nature of structure-activity relationships” (J Med Chem, 2007).
pKi: −log10 of the molar value.

Experiment: Inhibition of ribonuclease A

pKi	Structure (SMILES)
4.95	Nc1ncnc2c1ncn2[C@@H]1O[C@H](COP(=O)(O)OP(=O)(O)OC2CC(n3ccc(=O)[nH]c3=O)OC2CO)[C@@H](O)[C@H]1O (some centres not stated)
7.57	Nc1ncnc2c1ncn2[C@@H]1O[C@H](COP(=O)(O)OP(=O)(O)O[C@H]2C[C@H](n3ccc(=O)[nH]c3=O)O[C@@H]2COP(=O)(O)O)[C@@H](OP(=O)(O)O)[C@H]1O
